Reference: patent publication US8871788B2, “Substituted N-alkyl and N-acyl tetrahydro-isoquinoline derivatives, preparation and therapeutic use thereof” (Sanofi, priority 2010, dated 2014)

Experiments:
[1] = molecular target: T1, rhesus (Macacca Mulatta) H3 receptor (Macaca mulatta, UniProt Q865E1); test: Rhesus H3 [3H]-Methylhistamine radioligand binding assay (SPA); set-up: species or system rhesus monkey (Macacca Mulatta); details: [3H]-Methylhistamine 2 nM, rhesus H3 membranes, Cheng-Prusoff
T1 construct: 445 amino acid H3 receptor; expressed in transfected cells; host or cells: Flp-In T-REx 293 Cell Line (Invitrogen), pcDNA5/FRT/TO, induced with tetracycline
T1 sequence (Q865E1 1-445): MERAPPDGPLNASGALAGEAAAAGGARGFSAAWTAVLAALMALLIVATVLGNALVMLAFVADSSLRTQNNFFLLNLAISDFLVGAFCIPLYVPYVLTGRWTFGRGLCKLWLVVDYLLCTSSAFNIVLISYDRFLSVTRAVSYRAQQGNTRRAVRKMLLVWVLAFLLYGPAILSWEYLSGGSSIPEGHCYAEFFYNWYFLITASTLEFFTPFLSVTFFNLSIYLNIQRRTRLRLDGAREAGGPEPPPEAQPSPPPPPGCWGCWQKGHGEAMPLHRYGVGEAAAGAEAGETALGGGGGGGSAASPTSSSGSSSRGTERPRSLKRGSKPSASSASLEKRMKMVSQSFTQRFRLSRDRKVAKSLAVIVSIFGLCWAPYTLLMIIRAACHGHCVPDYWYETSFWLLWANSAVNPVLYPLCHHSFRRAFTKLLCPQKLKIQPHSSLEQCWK
Protocol: (§1) Rhesus H3 membranes were prepared from the Flp-In T-REx 293 Cell Line (Invitrogen) stably transfected with pcDNA5/FRT/TO (Invitrogen) containing the rhesus monkey (Macacca Mulatta) 445 amino acid H3 receptor. (Genbank #AY231164). Stably transfected cultures were amplified in tissue culture flasks by standard tissue culture methods and induced to express rhesus H3 by exposure to 500 ng/ml tetracycline (Cellgro) for 24 hours. After induction, cells were dissociated from flasks utilizing Cell Stripper (Cellgro). Cells were centrifuged (1K×g, 5 min) and pellet frozen in an ethanol-dry ice bath to disrupt cell membranes. Frozen cell pellet was re-suspended in 5 mM HEPES (pH 7.4, Invitrogen) at 10 ml/1000 cm2 of harvested cells. The cell suspension was drawn through an 18 gauge needle (2-3×) followed by a 23 gauge needle (2-3×) to further disrupt cell membranes. The cell suspension was centrifuged (40K×g, 30 min). Cell membrane pellet was re-suspended in 5 mM HEPES (pH 7.4, Invitrogen) at a final protein concentration of 10 mg/ml. Rhesus H3 membranes were stored under liquid nitrogen prior to use in [3H]-Methylhistamine and GTPγS radioligand binding assays.
(§2) Rhesus H3 radioligand binding assay was performed using rhesus H3 receptor membranes (prepared as described above), [3H]-Methylhistamine (Perkin Elmer) and WGA SPA beads (wheat germ agglutinin scintillation proximity assay) beads (Amersham). The assay was performed in 96-well Opti-Plates (Packard). Each reaction contained 50 μl rhesus H3 membranes (20-30 μg total protein), 50 μl WGA SPA beads (0.1 μg) and 50 μl of 83Ci/mmol [^3H]-Methylhistamine (final concentration 2 nM) and 50 μl of tested compound. The compounds of this invention and/or vehicle were diluted with binding buffer from 10 mM DMSO stocks. Assay plates were sealed with TopSeal (Perkin Elmer) and mixed on shaker (25° C., 1 hour). Assay plates were read on TopCount scintillation counter (Packard). Results were analyzed by Hill transformation and Ki values were determined by Cheng-Prusoff equation. Similar procedure was employed to determine the binding data for rat.

[2] = tested on: Rats; test: Forced-Swimming Test in Rats; type: in vivo, rat; details: p.o. twice, 0.1, 1, and 10 mg/kg, 6-min test
Protocol: This example further illustrates the study of efficacy of the compounds of this invention as antidepressive agents in animal models.
The procedure was a modification of that described by Porsolt et al. (1977) Depression: a new animal model sensitive to antidepressant treatments. Nature 266:730-2. Rats were placed in individual glass cylinder (40 cm height, 18 cm diameter) containing water (22-25° C.) to a height of 15 cm. Two swimming sessions were conducted (a 15-min training session followed 24 h later by a 6-min test). After each swimming session, rats were placed under a heating lamp to avoid hypothermia. The duration of immobility was measured during the 6-min test. Example 1 of this invention was administered p.o. twice (15 min pre-test followed by first injection 24 h prior to […]) at three different dosages of 0.1, 1, and 10 mg/kg. The compound is active at all of these three dosage levels.

[3] = molecular target: Rat H3 (Rattus norvegicus, UniProt Q9QYN8); test: Rat H3 radioligand binding (similar procedure); details: rat H3, similar procedure to rhesus binding
Rat H3, sequence (Q9QYN8 whole entry): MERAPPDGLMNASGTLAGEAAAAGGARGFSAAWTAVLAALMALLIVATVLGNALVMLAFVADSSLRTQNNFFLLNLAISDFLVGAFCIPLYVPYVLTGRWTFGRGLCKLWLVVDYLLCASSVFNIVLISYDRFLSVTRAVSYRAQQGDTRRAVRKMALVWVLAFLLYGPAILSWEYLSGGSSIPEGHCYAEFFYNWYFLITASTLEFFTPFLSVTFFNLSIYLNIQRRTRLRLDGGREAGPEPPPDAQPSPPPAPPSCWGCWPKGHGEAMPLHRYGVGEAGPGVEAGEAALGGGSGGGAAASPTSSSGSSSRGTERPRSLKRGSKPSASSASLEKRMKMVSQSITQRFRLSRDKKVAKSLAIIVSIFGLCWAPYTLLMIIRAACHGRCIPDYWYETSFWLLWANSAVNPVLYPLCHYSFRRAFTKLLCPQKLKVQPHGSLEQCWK
Protocol: as §2

[4] = molecular target: T2, rhesus H3 (Macaca mulatta, UniProt Q865E1); test: GTPγS radioligand binding assay, rhesus H3 constitutive functional activity in cell membranes; type: biochemical, rhesus monkey (Macacca Mulatta); details: relative to basal levels
T2 construct: 445 amino acid H3 receptor; expressed in transfected cells; host or cells: Flp-In T-REx 293 Cell Line (Invitrogen), pcDNA5/FRT/TO, induced with tetracycline
T2 sequence (Q865E1 1-445): as the sequence (Q865E1 1-445) above
Protocol: as §1

Ki [1] [nM]	Ki [3] [nM]	GTPγS-35 ASSAY % Inverse Agonism [4] [%]	Compound	activity in forced-swimming test (duration of immobility) [2]
1.2	3.6		C[C@H]1CCCN1[C@H]1CCN(c2ccc3c(c2)CCN(C2CCOCC2)C3=O)C1 [Example 1, 6-((2S,3′S)-2-Methyl-[1,3′]bipyrrolidinyl-1′-yl)-2-(tetrahydro-pyran-4-yl)-3,4-dihydro-2H-isoquinolin-1-one]	active
0.15	0.51	−12.2	C[C@H]1CCCN1[C@H]1CCN(c2ccc3c(c2)CCN(C(=O)C2CCCC2)C3)C1 [Example 21, Cyclopentyl-[6-((2S,3′S)-2-methyl-[1,3′]bipyrrolidinyl-1′-yl)-3,4-dihydro-1H-isoquinolin-2-yl]-methanone]	
88	110	−33.2	Cc1ccc(S(=O)(=O)N2CCc3cc(N4CC[C@H](N5CCC[C@@H]5C)C4)ccc3C2)cc1 [Example 24, 6-((2S,3′S)-2-Methyl-[1,3′]bipyrrolidinyl-1′-yl)-2-(toluene-4-sulfonyl)-1,2,3,4-tetrahydro-isoquinoline]	
2.8	6.2	−26.1	COc1ccc(C(=O)N2CCc3cc(N4CC[C@H](N5CCC[C@@H]5C)C4)ccc3C2)cc1 [Example 12, (4-Methoxy-phenyl)-[6-((2S,3′S)-2-methyl-[1,3′]bipyrrolidinyl-1′-yl)-3,4-dihydro-1H-isoquinolin-2-yl]-methanone]	
